Source: patent publication US9951366B2, “Cell-free protein synthesis method and device using a eukaryotic cell lysate in the presence of a caspase inhibitor and the use of a caspase inhibitor for increasing the yield and/or the stability of the synthesized proteins in such a method” (Fraunhofer-Gesellschaft zur Foerderung der angewandten …, priority 2013, dated 2018)

Tests used:
[1] = system: cell-free eukaryotic translation system on the basis of a cell extract from Spodoptera frugiperda (Sf21) insect cells; assay: Influence of DTT on expression of model proteins in batch and dialysis system (autoradiograph); format: biochemical; conditions: with Z-VAD-FMK, 48 h
Protocol: For this purpose, the influence of the reducing agent DTT on the synthesis performance of the batch and dialysis system with different model proteins was investigated.
The synthesis of the glycoprotein erythropoietin (N-terminally fused to a melittin signal sequence; Mel-EPO; 20.9 kDa, unglycosylated) and of ETB (49.3 kDa), luciferase (60.6 kDa), Mel-Hb-EGF-eYFP (51 kDa) and bacteriorhodopsin (26.9 kDa) was carried out in the batch (B) and dialysis system (D) with the addition of the caspase inhibitor (Z-VAD-FMK) without (−) and with (+) the addition of DTT in the translation buffer in the presence of ^14C-leucine for 48 h, 27° C. and 600 rpm.
Control=translation mixture without the addition of a DNA template.

[2] = system: eukaryotic translation system on the basis of a cell extract from Spodoptera frugiperda (Sf21) insect cells; assay: Influence of irreversible and reversible caspase inhibitors on SII-eYFP synthesis, relative fluorescence intensity; format: biochemical; conditions: inhibitor 30 μM, 48 h, dialysis mode, compared with control dialysis mixture without inhibitor
Protocol: Using the example of the fluorescent protein SII-eYFP, the influence of different irreversible caspase inhibitors (Z-VAD-FMK, Ac-VAD-CMK, Ac-DEVD-CMK (SEQ ID NO:1), Q-VD-OPh) and of a reversible caspase inhibitor (Ac-[…]-CHO (SEQ ID NO:10)) on the synthesis was investigated in a eukaryotic dialysis translation system.
The translation of SII-eYFP was carried out using the DNA template pIX3.0-SII-eYFP over 48 h at 600 rpm and 27° C. in the batch and dialysis modes in the presence of different irreversible and reversible caspase inhibitors. All inhibitors were used in a concentration of 30 μM. Following the completion of translation, the different mixtures were examined in the phosphorimager system (Typhoon TRIO+ imager, GE Healthcare) for their fluorescence intensity. For this purpose, 5 μl of each translation mixture was resuspended in 25 μl PBS. Subsequently, 25 μl of this sample was pipetted into a cavity of an Ibidi slide and measured, the excitation of the samples taking place at 488 nm and the emission being measured at 526 nm.

Molecule	effect of absence of DTT on expression of model proteins (luciferase, SII-eYFP, ETB, Mel-Hb-EGF-eYFP, bacteriorhodopsin) [1]	glycosylation of Mel-EPO ([1]; with/without DTT)	increase of synthesis yield of fluorescing SII-eYFP [2] [%]
O[C@H](CS)[C@H](O)CS (racemic) [DTT, dithiothreitol]	no negative effect	complete glycosylation of the target protein could only be achieved in the presence of DTT	–
CC(=O)N[C@@H](CC(=O)O)C(=O)N[C@@H](CCC(=O)O)C(=O)N[C@H](C(=O)N[C@@H](CC(=O)O)C(=O)CCl)C(C)C [Ac-DEVD-CMK, acetyl-Asp-Glu-Val-Asp-chloromethylketone]	–	–	122
CC(C)C(NC(=O)c1ccc2ccccc2n1)C(=O)NC(CC(=O)O)C(=O)COc1c(F)cccc1F (stereo not drawn) [Q-VD-OPh, N-(2-quinolyl)-Val-Asp-(2,6-difluorophenoxy)-methylketone]	–	–	77
acetyl-Ala-Ala-Val-Ala-Leu-Leu-Pro-Ala-Val-Leu-Leu-Ala-Leu-Leu-Ala-Pro-Asp-Glu-Val-Asp-aldehyde (Ac-AAVALLPAVLLALLAPDEVD-aldehyde; SMILES CC(=O)N[C@@H](C)C(=O)N[C@@H](C)C(=O)N[C@H](C(=O)N[C@@H](C)C(=O)N[C@@H](CC(C)C)C(=O)N[C@@H](CC(C)C)C(=O)N1CCC[C@H]1C(=O)N[C@@H](C)C(=O)N[C@H](C(=O)N[C@@H](CC(C)C)C(=O)N[C@@H](CC(C)C)C(=O)N[C@@H](C)C(=O)N[C@@H](CC(C)C)C(=O)N[C@@H](CC(C)C)C(=O)N[C@@H](C)C(=O)N1CCC[C@H]1C(=O)N[C@@H](CC(=O)O)C(=O)N[C@@H](CCC(=O)O)C(=O)N[C@H](C(=O)N[C@H](C=O)CC(=O)O)C(C)C)C(C)C)C(C)C)	–	–	53
